What all share (assay): NCI tumour cell line growth inhibition, 48 h
In assay [1] the test system is OVCAR-5 ovarian.
Assay [2] relates to NCI-H226 lung.
The test system of assay [3] is SNB-75 CNS.
The test system of assay [4] is EKVX NSCLC.
The subject of assay [5] is NCI-H460 lung.
In assay [6] the test system is MOLT-4 leukemia.
In assay [7] the test system is SK-MEL-2 melanoma.
Assay [8] has as its system HS 578T breast.
For assay [9], the system named is MCF7 breast.
Assay [10] relates to DU-145 prostate.

Where “and” joins values, the source holds several entries; their conditions need not be identical. Identical values can stand only once.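 Growth conditions: 96-well plates. Treatment: test compound, 48 hours, 5 concentrations. Analysis: linear interpolation between bracketing concentrations; unreached endpoints set to highest concentration. GI50: concentration for 50% inhibition of growth. TGI marks complete inhibition of growth.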

For the compound `CCc1cccc(CC)c1NC1=CC(=O)C(=O)c2ccccc21`, the TGI is 31 µM in assay [1]; 88.5 µM in assay [2]; 49.3 µM in [3]; 27.9 µM in assay [4]; 48.8 µM in [5]; over 100 µM in assay [6]. Also, the TGI in assay [7] was 35.9 µM.
Regarding `O=C(Nc1cc(Cl)ccc1Cl)c1cc2ccccc2oc1=O`, the TGI in assay [3] was 62.9 µM; in assay [4], over 100 µM; in assay [5] it was over 100 µM; in assay [6], over 100 µM; in assay [7], over 100 µM.
For `N=C(N)c1ccc(-c2ccc(-c3cccs3)s2)cc1F`, the GI50 in assay [1] was 1.02 µM; in assay [8] it was 1.8 µM; in [2], 1.74 µM; in assay [3], 1.34 µM; in [5], 0.0436 µM; in assay [6] it was 1.03 µM. Moreover, the GI50 is 1.94 µM in assay [7]; 0.5 µM in [9]; 1.57 µM and 1.44 µM in [10]. The TGI in [1] was 2.36 µM; in assay [8], 4.49 µM; in [2] it was 3.86 µM; in assay [3], 2.66 µM; in assay [5], 1.05 µM; in assay [6], 2.87 µM. Besides, the TGI was 3.65 µM in [7]; 2.26 µM in assay [9]; 3.04 µM and 2.84 µM in assay [10].
In the case of `CC(=O)NNc1nc(C)c(C(=O)NNC(=O)C(=O)Nc2ccc(C)cc2[N+](=O)[O-])s1`, the TGI in [1], in [2], in [3], in assay [4], in assay [5] and in assay [6] was over 100 µM each time. The same compound gave a TGI in assay [7] of over 100 µM.
For `BrC(/C=N/Nc1nnc(-c2ccccc2)c(-c2ccccc2)n1)C(Br)c1ccccc1` (stereo unspecified), the TGI was over 100 µM in [1]; 70.4 µM in [2]; 78.6 µM in [3]; over 100 µM in assay [4]; over 100 µM in [5]; over 100 µM in assay [6]. For the same compound, in [7], the TGI amounted to 73.2 µM.
Consider `Cc1c(Cl)ccc2[s+]snc12`, for which the TGI in assay [1] was over 100 µM; in assay [2] it was over 100 µM; in [3], over 100 µM; in [4] it was over 100 µM; in assay [5] it was over 100 µM; in assay [6], 95.1 µM. For the same compound, the TGI in [7] is 77.3 µM.
Regarding `CCc1ccc2cc3c(ccc4ccccc43)c3c2c1CC3`, the GI50 in assay [1], in [8], in assay [2], in assay [3], in [5] and in [6] was over 100 µM each time. Besides, the figures for the GI50 in assay [7], in assay [9] and in assay [10] were over 100 µM, 0.6 µM and over 100 µM, respectively. Besides, the TGI in assay [1], in assay [8], in assay [2], in assay [3], in assay [5] and in assay [6] was over 100 µM each time. The TGI in [7], in assay [9] and in assay [10] was over 100 µM throughout.
For `COc1ccc2c(c1)c(-c1nc(-c3cn(C)c4ncccc34)cs1)cn2CCCCN1CCCCC1`, the GI50 in assay [1] is 1.65 µM; in assay [2], 1.52 µM; in assay [3], 1.07 µM; in assay [4] it was 1.66 µM; in assay [5], 1.68 µM; in [10] it was 1.74 µM. For the same compound, the TGI in assay [1] is 3.08 µM; in assay [2], 3.11 µM; in assay [3], 2.28 µM; in assay [4] it was 3.18 µM; in assay [5] it was 3.2 µM; in [10] it was 3.12 µM.
For the compound `Cc1cc2c(=O)cc(-c3ccncc3)oc2c(C(N)=O)c1C`, the TGI in assay [1], in assay [2], in assay [3], in assay [4], in assay [5] and in assay [6] was over 100 µM throughout. Moreover, the TGI in assay [7] is over 100 µM.
Regarding `Cc1nc2ccccc2c(=O)n1/N=C(\N=Nc1ccc(Cl)cc1)c1ccc(N(C)C)cc1`, the TGI in assay [4], in assay [5] and in assay [6] was over 100 µM in each case.
With `C#CC[C@]12CC(=O)CC[C@H]1CC1(C2)OCCO1`, the TGI in assay [2], in assay [3], in assay [5], in assay [6] and in assay [7] was over 100 µM throughout.
`CCCCP1(=O)C=CC(Cl)=C(C)C1` (stereo unspecified): the TGI in assay [1], in [4], in [5], in [6] and in assay [7] was over 100 µM throughout.
As to `COc1cc(CC2c3cc(OC)c(OC)cc3CCN2C)c(C(=O)O)cc1OC` (stereo unspecified), the TGI in [1], in assay [2], in [3], in assay [4], in [6] and in assay [7] was over 100 µM in each case.
`O=P(c1ccccc1)(c1ccccc1)C1CC=C2CCCCCC2C1` (stereo unspecified): the TGI in assay [1] is 62.2 µM; in assay [2], 81.1 µM; in assay [3], 62.7 µM; in assay [4], over 100 µM; in [5] it was over 100 µM; in assay [6], 45.3 µM. In assay [7], this compound gave a TGI of 81.6 µM.
`CC(=O)[O-].O=C([CH-]C(=O)c1ccccc1)c1ccccc1.O=C([CH-]C(=O)c1ccccc1)c1ccccc1.[Dy+3]`: the GI50 in assay [1] is 34.9 µM; in [2], 3.79 µM; in assay [3], 3.33 µM; in assay [4] it was 9.62 µM; in [5], 6.66 µM; in [6] it was 4.59 µM. Further, the GI50 in assay [7] was 14.9 µM. Moreover, the TGI in assay [1] is over 100 µM; in [2], 15.6 µM; in assay [3] it was 8.46 µM; in assay [4], 42.6 µM; in assay [5], over 100 µM; in [6], 31.9 µM. This compound also registered a TGI in assay [7] of 37.4 µM.
Consider `N#CC1(C2CC(=O)N(c3ccccc3)C2=O)CCCCC1=O` (stereo unspecified), for which the TGI in assay [1], in assay [2], in [3], in assay [4], in assay [5] and in assay [6] was over 100 µM in each case.
Consider `N#Cc1cccc(C2SCc3nc4ccccc4n32)c1` (stereo unspecified), for which the TGI is over 100 µM in assay [1]; 96.8 µM in assay [2]; over 100 µM in assay [4]; over 100 µM in [5]; over 100 µM in assay [6]; over 100 µM in [7].
In the case of `CCC[CH2][Sn]1([CH2]CCC)[O]C(=O)c2cccnc2[S]1`, the GI50 is 15.3 µM in assay [2]; 2.54 µM in assay [3]; 2.46 µM in assay [4]; 11.4 µM in assay [5]; 1.87 µM in [6]; 2.11 µM in [7]. The TGI in assay [2] is 29.1 µM; in [3] it was 7.82 µM; in assay [4], 11.9 µM; in assay [5] it was 23.6 µM; in assay [6], 7.71 µM; in assay [7], 4.63 µM.
Regarding `CCn1nc(C#Cc2c(C)ccc3c(Nc4ccc(Cl)cc4)nccc23)c2c(N)ncnc21`, the GI50 in assay [1] is 9.19 µM; in assay [2] it was 3.29 µM; in assay [3], 3.12 µM; in assay [4], 7.4 µM; in assay [5] it was 4.22 µM; in [6], 4.32 µM. The GI50 in assay [7] is 1.92 µM; in [9], 2.49 µM; in [10], 5.74 µM. The TGI in assay [1] was over 100 µM; in assay [2] it was 12.9 µM; in assay [3], 44 µM; in assay [4] it was over 100 µM; in assay [5] it was over 100 µM; in assay [6] it was over 100 µM. The TGI in assay [7] is 6.53 µM; in assay [9], over 100 µM; in assay [10], over 100 µM.
Consider `O=C(c1ccccc1)N1CCc2c([nH]c3ccccc23)C1`, for which the TGI in [1] was over 100 µM; in assay [2], over 100 µM; in assay [3], over 100 µM; in assay [4], over 100 µM; in assay [5], over 100 µM; in assay [6], 64.4 µM. In addition, the TGI in assay [7] stood at 71.2 µM.
In the case of `C/C(=N\NC(N)=S)c1ccc(Oc2ccccc2)cc1`, the TGI in assay [3] is 33.6 µM; in assay [4], 50.4 µM; in assay [5], 42.6 µM; in assay [6], 17.4 µM.
Turning to `Cc1nn(-c2ccccc2)c2c1[C@@H](C)[C@H]1CC3(CC4(C)C[C@@H]3C1(C)c1c(C)nn(-c3ccccc3)c1N4C)N2C` (stereo partly specified), the GI50 is over 100 µM in [1]; over 100 µM in [8]; over 100 µM in assay [2]; over 100 µM in assay [7]; 3.46 µM in [9]; over 100 µM in [10]. The TGI in [1], in [8], in [2], in assay [7], in [9] and in assay [10] was over 100 µM each time.
With `CN(C)c1ccc(-c2cc(-c3cccc(NS(C)(=O)=O)c3)nc(N)c2C#N)cc1`, the GI50 in assay [1] was 0.121 µM; in assay [8] it was 0.0292 µM; in [2], 0.045 µM; in assay [3], 0.0272 µM; in assay [4], 0.133 µM; in assay [5], 0.0378 µM. Moreover, the GI50 in assay [6] was 0.0822 µM; in [7], 0.0449 µM; in assay [9], 0.238 µM. The TGI in assay [1] is over 74.8 µM; in assay [8] it was 49.2 µM; in [2] it was 17.6 µM; in assay [3] it was 3.22 µM; in assay [4] it was over 63.8 µM; in assay [5], 18.6 µM. The TGI in assay [6] was over 58.4 µM; in assay [7], 21.8 µM; in assay [9], 17.9 µM.
With `O=C(CC1(O)C(=O)Nc2ccc(Br)cc21)c1cccc([N+](=O)[O-])c1` (stereo unspecified), the TGI in [1] was over 100 µM; in [2], 82.5 µM; in assay [3] it was 97.2 µM; in [4], over 100 µM; in [5] it was over 100 µM; in assay [6] it was 70.1 µM. For the same compound, in assay [7], the TGI was over 100 µM.
For `O=C1C(=C2C(=O)c3ccccc3[N+]2=O)N([O-])c2ccccc21`, the TGI in assay [1] is over 100 µM; in assay [2], 81.4 µM; in assay [3], 83.8 µM; in assay [4] it was 42.2 µM; in assay [5] it was 55.3 µM; in [6], 48.7 µM.
For `O=C1N(c2ccccc2)C2(O)C(=O)c3ccccc3C2(O)N1c1ccccc1` (stereo unspecified), the TGI in assay [1], in assay [2], in [3], in assay [4], in assay [5] and in [6] was over 100 µM throughout. The TGI in assay [7] is over 100 µM.
As to `CCOc1ccc(/C=C/C(=O)c2sc(NNC(C)=O)nc2C)cc1`, the TGI in assay [1], in assay [3], in assay [4], in [5], in [6] and in assay [7] was over 100 µM throughout.
Regarding `CC1(C)OC2OC(/C=C/[N+](=O)[O-])C3OC(C)(C)OC3C2O1` (stereo unspecified), the TGI in assay [1] turned out to be 38.1 µM; in assay [2] it was 37.1 µM; in assay [3], 34.8 µM; in [4] it was 41.9 µM; in assay [5] it was 32.4 µM; in [6] it was 13.2 µM. This compound also returned a TGI in [7] of 32.6 µM.
In the case of `C=CC(C)(C)[C@@]12CC3C(=O)N[C@@H](Cc4ccccc4)C(=O)N3[C@@H]1N(C(C)=O)c1ccccc12` (stereo partly specified), the TGI in assay [1] is over 100 µM; in [2], over 100 µM; in [3], over 100 µM; in assay [4] it was over 100 µM; in assay [5], over 100 µM; in assay [6], 71.7 µM. The same compound displayed a TGI in assay [7] of over 100 µM.
